Source: patent publication US10196369B2, “Spirocyclic EBI2 modulators” (Sanford Burnham Prebys Medical Discovery Institute, priority 2013, dated 2019)

Biological target: EBI2 (Homo sapiens, UniProt P32249)
Experiment: Cell-based luminescent assay of EBI2 modulation (7a,25-OHC stimulated)
Settings: 7a,25-OHC final assay concentration 80 nM, 60 minute incubation
Description: To assess EBI2 modulation, the compounds described herein were assayed in the following cell-based luminescent assay:
1) Plated 600 cells/well in 4 μL of assay media into columns 1-48 of a 1536-well assay plate, using a liquid dispenser.
2) Centrifuged plates at 1000 rpm for 1 minute and covered with lids.
3) Incubated overnight at 37° C., 100% relative humidity, 5% CO2.
1) Centrifuged compound plates containing compounds described herein at 500 rpm for 1 minute.
2) Added compounds into assay plate col 5-48 to final concentration 4-5 uM. Added matching amount of DMSO to positive and negative control wells in columns 1-4.
3) Dispensed 2 uL/well of assay media to columns 1-2 for the positive control wells.
4) Added 2 uL/well of 400 nM 7a,25-OHC (final assay concentration=80 nM) in assay media to columns 3-48 for the negative control and test compound wells.
5) Centrifuged plates at 1000 rpm for 1 minute and re-lid plates.
6) Incubated plates at 37° C., 100% relative humidity, 5% CO2 for 60 minutes.
7) Following 60 minute incubation, delivered 2.5 uL of Detection Reagent solution to each assay plate (Columns 1-48) using a liquid handler.
8) Centrifuged plates at 2000 rpm for 2 minutes and re-lid plates.
9) Incubated plates for 60 minutes at 25 degrees in the dark.
10) Read plates using the Viewlux, Envision or other suitable plate reader using a luminescence detection.
The experimental values were normalized by the difference between values from neutral and stimulator control wells in each plate. Then normalized data was corrected to remove systematic plate patterns due to artifacts such as dispensing tip issues etc.

Sequence of EBI2 (P32249 whole entry): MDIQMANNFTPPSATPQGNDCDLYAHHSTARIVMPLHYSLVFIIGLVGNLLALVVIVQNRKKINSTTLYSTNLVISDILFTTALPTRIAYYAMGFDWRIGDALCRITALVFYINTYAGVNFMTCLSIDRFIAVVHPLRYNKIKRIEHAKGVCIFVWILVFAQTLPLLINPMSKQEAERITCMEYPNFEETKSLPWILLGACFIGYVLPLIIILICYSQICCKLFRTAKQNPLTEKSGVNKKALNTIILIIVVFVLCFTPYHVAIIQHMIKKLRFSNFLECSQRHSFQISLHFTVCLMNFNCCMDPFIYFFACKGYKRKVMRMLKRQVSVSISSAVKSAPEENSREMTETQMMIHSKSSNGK

| IC50 | Structure (SMILES) |
| --- | --- |
| 500 to 5000 nM | O=C(c1ccc(F)cc1)N1CCC2(CC1)CN(C(=O)c1cc3ccc(Br)cc3[nH]1)C2 [Compound C57, 6-bromoindol-2-yl 7-[(4-fluorophenyl)carbonyl]-2,7-diazaspiro[3.5]non-2-yl ketone] |
| < 100 nM | O=C(/C=C/c1ccc(Cl)c(Cl)c1)N1CC2(CCN(C(=O)c3ccc(Cl)cc3)CC2)C1 [Compound C29, (2E)-3-(3,4-dichlorophenyl)-1-{7-[(4-chlorophenyl)carbonyl]-2,7-diazaspiro[3.5]non-2-yl}prop-2-en-1-one] |
| 100 to 500 nM | O=C(c1ccc(B(O)O)cc1)N1CCC2(CC1)CN(C(=O)c1cc3cc(Cl)ccc3[nH]1)C2 [Compound C37, 4-(2-(5-chloro-1H-indole-2-carbonyl)-2,7-diazaspiro[3.5]nonane-7-carbonyl)phenylboronic acid] |
| 100 to 500 nM | O=C(C#Cc1ccc(Cl)cc1)N1CC2(CCN(C(=O)c3ccc(F)cc3)CC2)C1 [Compound C3, 3-(4-chlorophenyl)-1-{7-[(4-fluorophenyl)carbonyl]-2,7-diazaspiro[3.5]non-2-yl}prop-2-yn-1-one] |
| < 100 nM | O=C(/C=C/c1ccc(Br)cc1)N1CC2(CCN(C(=O)c3ccc(F)cc3)CC2)C1 [Compound C20, (2E)-3-(4-bromophenyl)-1-{7-[(4-fluorophenyl)carbonyl]-2,7-diazaspiro[3.5]non-2-yl}prop-2-en-1-one] |
| < 100 nM | O=C(/C=C/c1ccc(Br)cc1)N1CC2(CCN(C(=O)c3ccc(C(F)(F)F)cc3)CC2)C1 [Compound C21, (2E)-3-(4-bromophenyl)-1-(7-{[4-(trifluoromethyl)phenyl]carbonyl}-2,7-diazaspiro[3.5]non-2-yl)prop-2-en-1-one] |
| 100 to 500 nM | O=C(/C=C/c1ccc(Cl)c(Cl)c1)N1CC2(CCN(Cc3ccc(Cl)cc3)CC2)C1 [Compound C33, (2E)-3-(3,4-dichlorophenyl)-1-{7-[(4-chlorophenyl)methyl]-2,7-diazaspiro[3.5]non-2-yl}prop-2-en-1-one] |
| < 100 nM | O=C(/C=C/c1ccc(Br)cc1)N1CCC2(CC1)CN(Cc1ccc(Cl)cc1)C2 [Compound C6, (2E)-3-(4-bromophenyl)-1-{2-[(4-chlorophenyl)methyl]-2,7-diazaspiro[3.5]non-7-yl}prop-2-en-1-one] |
| 100 to 500 nM | O=C(c1cc2ccc(Br)cc2[nH]1)N1CC2(CCN(C(=O)c3ccc(F)cc3C(F)(F)F)CC2)C1 [Compound C61, 6-bromoindol-2-yl 7-{[4-fluoro-2-(trifluoromethyl)phenyl]carbonyl}-2,7-diazaspiro[3.5]non-2-yl ketone] |
| < 100 nM | O=C(C#Cc1ccc(Cl)cc1)N1CCC2(CC1)CN(Cc1ccc(Cl)cc1)C2 [Compound C82, 3-(4-chlorophenyl)-1-{2-[(4-chlorophenyl)methyl]-2,7-diazaspiro[3.5]non-7-yl}prop-2-yn-1-one] |
| 100 to 500 nM | COc1ccc(CN2CC3(CCN(C(=O)C#Cc4ccc(Br)cc4)CC3)C2)cc1 [Compound C75, 3-(4-bromophenyl)-1-{2-[(4-methoxyphenyl)methyl]-2,7-diazaspiro[3.5]non-7-yl}prop-2-yn-1-one] |
| 500 to 5000 nM | O=C(c1cc2cc(Br)ccc2[nH]1)N1CC2(CCN(Cc3ccc(F)cc3C(F)(F)F)CC2)C1 [Compound C60, 5-bromoindol-2-yl 7-{[4-fluoro-2-(trifluoromethyl)phenyl]methyl}-2,7-diazaspiro[3.5]non-2-yl ketone] |
| < 100 nM | O=C(/C=C/c1ccc(Cl)c(Cl)c1)N1CC2(CCN(C(=O)c3ccc(C(F)(F)F)cc3)CC2)C1 [Compound C30, (2E)-3-(3,4-dichlorophenyl)-1-(7-{[4-(trifluoromethyl)phenyl]carbonyl}-2,7-diazaspiro[3.5]non-2-yl)prop-2-en-1-one] |
| 100 to 500 nM | O=C(/C=C/c1ccc(Br)cc1)N1CC2(CCN(Cc3ccc(F)cc3)CC2)C1 [Compound C25, (2E)-3-(4-bromophenyl)-1-{7-[(4-fluorophenyl)methyl]-2,7-diazaspiro[3.5]non-2-yl}prop-2-en-1-one] |
| < 100 nM | O=C(C#Cc1ccc(Cl)cc1)N1CC2(CCN(C(=O)c3ccc(Cl)cc3)CC2)C1 [Compound C84, 3-(4-chlorophenyl)-1-{7-[(4-chlorophenyl)carbonyl]-2,7-diazaspiro[3.5]non-2-yl}prop-2-yn-1-one] |
| < 100 nM | O=C(C#Cc1ccc(Cl)cc1)N1CCC2(CC1)CN(Cc1ccc(C(F)(F)F)cc1)C2 [Compound C78, 3-(4-chlorophenyl)-1-(2-{[4-(trifluoromethyl)phenyl]methyl}-2,7-diazaspiro[3.5]non-7-yl)prop-2-yn-1-one] |
| 100 to 500 nM | O=C(C#Cc1ccc(Cl)cc1)N1CC2(CCN(Cc3ccc(Cl)cc3)CC2)C1 [Compound C85, 3-(4-chlorophenyl)-1-{7-[(4-chlorophenyl)methyl]-2,7-diazaspiro[3.5]non-2-yl}prop-2-yn-1-one] |
| 500 to 5000 nM | O=C(c1cc2ccc(Br)cc2[nH]1)N1CC2(CCN(Cc3ccc(C(F)(F)F)cc3)CC2)C1 [Compound C63, 6-bromoindol-2-yl 7-{[4-(trifluoromethyl)phenyl]methyl}-2,7-diazaspiro[3.5]non-2-yl ketone] |
| 100 to 500 nM | O=C(C#Cc1ccc(F)cc1)N1CCC2(CC1)CN(C(=O)c1ccc(F)cc1)C2 [Compound C86, 3-(4-fluorophenyl)-1-{2-[(4-fluorophenyl)carbonyl]-2,7-diazaspiro[3.5]non-7-yl}prop-2-yn-1-one] |
| 100 to 500 nM | O=C(c1ccc(C(F)(F)F)c(F)c1)N1CC2(CCN(C(=O)c3cc4cc(Cl)ccc4[nH]3)CC2)C1 [Compound C13, 5-chloroindol-2-yl 2-{[3-fluoro-4-(trifluoromethyl)phenyl]carbonyl}-2,7-diazaspiro[3.5]non-7-yl ketone] |
| < 100 nM | O=C(/C=C/c1ccc(Cl)c(Cl)c1)N1CC2(CCN(C(=O)c3ccc(F)cc3)CC2)C1 [Compound C28, (2E)-3-(3,4-dichlorophenyl)-1-{7-[(4-fluorophenyl)carbonyl]-2,7-diazaspiro[3.5]non-2-yl}prop-2-en-1-one] |
| 500 to 5000 nM | O=C(c1ccc(F)cc1)N1CCC2(CC1)CN(C(=O)c1cc3ccc(Cl)cc3[nH]1)C2 [Compound C55, 6-chloroindol-2-yl 7-[(4-fluorophenyl)carbonyl]-2,7-diazaspiro[3.5]non-2-yl ketone] |
| < 100 nM | O=C(C#Cc1ccc(F)cc1)N1CCC2(CC1)CN(C(=O)c1ccc(Cl)cc1)C2 [Compound C87, 1-{2-[(4-chlorophenyl)carbonyl]-2,7-diazaspiro[3.5]non-7-yl}-3-(4-fluorophenyl)prop-2-yn-1-one] |
| < 100 nM | N#Cc1ccc(C(=O)N2CCC3(CC2)CN(C(=O)/C=C/c2ccc(Br)cc2)C3)cc1F [Compound C43, 4-({2-[(2E)-3-(4-bromophenyl)prop-2-enoyl]-2,7-diazaspiro[3.5]non-7-yl}carbonyl)-2-fluorobenzenecarbonitrile] |
| 500 to 5000 nM | O=C(c1ccc(Cl)cc1)N1CCC2(CC1)CN(C(=O)c1cc3ccc(Br)cc3[nH]1)C2 [Compound C59, 6-bromoindol-2-yl 7-[(4-chlorophenyl)carbonyl]-2,7-diazaspiro[3.5]non-2-yl ketone] |
| 100 to 500 nM | O=C(C#Cc1ccc(Cl)cc1)N1CC2(CCN(Cc3ccc(F)cc3)CC2)C1 [Compound C81, 3-(4-chlorophenyl)-1-{7-[(4-fluorophenyl)methyl]-2,7-diazaspiro[3.5]non-2-yl}prop-2-yn-1-one] |
